Data as given in ChEMBL document CHEMBL1153782, “3D QSAR study of the toxicity of trichothecene mycotoxins” (Eur J Med Chem, 2009).

What was measured:
Saccharomyces cerevisiae [1] = assay: Cytotoxicity against yeast cells relative to Tetraol; format: functional, organism-based
Saccharomyces cerevisiae [2] = assay: Cytotoxicity against yeast cells assessed as logarithm of ratio of toxicity of test compound to Tetraol; format: functional, organism-based

SMILES: CC(=O)OC[C@]12CCC(C)=C[C@H]1O[C@@H]1[C@H](O)[C@@H](OC(C)=O)[C@@]2(C)[C@]12CO2
- Ratio (Saccharomyces cerevisiae [1]): 343
- Activity (Saccharomyces cerevisiae [2]): 343

SMILES: CC(=O)OC[C@]12CCC(C)=C[C@H]1O[C@@H]1[C@H](OC(C)=O)[C@@H](OC(C)=O)[C@@]2(C)[C@]12CO2
- Ratio (Saccharomyces cerevisiae [1]): 2.2
- Activity (Saccharomyces cerevisiae [2]): 2.2
